Consider 23 molecules from PubChem BioAssay AID330 (DTP/NCI, 2004).

Each structure is given as a SMILES string. Values joined by “and” are separate entries in the source; they are usually repeats but may differ in a detail not shown here. Equal entries are not always repeated. Inconclusive results and toxic doses are left out.

This assay deals with P388 leukemia ip, CD2F1 mice, survival T/C. The experiment in a line: NCI In Vivo Anticancer Drug Screen. Data for tumor model P388 Leukemia (intraperitoneal) in CD2F1 (CDF1) mice. Conditions: endpoint: median survival time, higher = longer survival. The gist of the method:
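Mice carrying the transplanted tumor received test compound or vehicle. Survival was recorded in each group, and the value is the treated-group measurement divided by that of the vehicle-treated control group.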

Setting [1] is: dose: 50.0 mg/kg/injection, schedule: Q01DX009 (ip), vehicle: saline with Tween-80.
The mark [2] stands for this setting: dose: 100.0 mg/kg/injection, schedule: Q01DX009 (ip), vehicle: saline with Tween-80.
The mark [3] stands for this setting: dose: 50.0 mg/kg/injection, schedule: Q01DX005 (ip), vehicle: saline with Tween-80.
[4] abbreviates: dose: 100.0 mg/kg/injection, schedule: Q04DX003 (ip), vehicle: saline.
[5] abbreviates: dose: 200.0 mg/kg/injection, schedule: Q04DX003 (ip), vehicle: saline.
[6] abbreviates: dose: 200.0 mg/kg/injection, schedule: Q01DX009 (ip), vehicle: saline with Tween-80.
The mark [7] stands for this setting: dose: 50.0 mg/kg/injection, schedule: Q01DX005 (ip), vehicle: Klucel (hydroxypropylcellulose) (HPC).
Setting [8] is: dose: 100.0 mg/kg/injection, schedule: Q01DX005 (ip), vehicle: Klucel (hydroxypropylcellulose) (HPC).
The mark [9] stands for this setting: dose: 200.0 mg/kg/injection, schedule: Q01DX005 (ip), vehicle: Klucel (hydroxypropylcellulose) (HPC).
[10] abbreviates: dose: 100.0 mg/kg/injection, schedule: Q01DX005 (ip), vehicle: saline with Tween-80.
Setting [11] is: dose: 200.0 mg/kg/injection, schedule: Q01DX005 (ip), vehicle: saline with Tween-80.
The mark [12] stands for this setting: dose: 60.0 mg/kg/injection, schedule: Q01DX005 (ip), vehicle: saline with Tween-80.

Take `c1ccc(C2=NNC(c3ccccc3)=NN2)cc1`: the T/C by setting is: (dose: 0.78 mg/kg/injection, schedule: Q01DX009 (ip), vehicle: saline with Tween-80) 107 % of control; (dose: 1.56 mg/kg/injection, schedule: Q01DX009 (ip), vehicle: saline with Tween-80) 95 % of control; (dose: 3.12 mg/kg/injection, schedule: Q01DX009 (ip), vehicle: saline with Tween-80) 89 % of control; (dose: 25.0 mg/kg/injection, schedule: Q01DX009 (ip), vehicle: saline with Tween-80) 93 % of control; under setting [1], 100 % of control; (dose: 50.0 mg/kg/injection, schedule: Q04DX003 (ip), vehicle: Klucel (hydroxypropylcellulose) (HPC)) 97 % of control. The T/C is 90 % of control under setting [2]; 104 % of control (dose: 100.0 mg/kg/injection, schedule: Q04DX003 (ip), vehicle: Klucel (hydroxypropylcellulose) (HPC)); 97 % of control (dose: 200.0 mg/kg/injection, schedule: Q04DX003 (ip), vehicle: Klucel (hydroxypropylcellulose) (HPC)); 94 % of control (dose: 400.0 mg/kg/injection, schedule: Q04DX003 (ip), vehicle: Klucel (hydroxypropylcellulose) (HPC)).
As to `CCC/C(=N\NC(=S)N1CCCCCC1)c1ccccn1`, the T/C was 117 % of control (dose: 25.0 mg/kg/injection, schedule: Q01DX005 (ip), vehicle: saline with Tween-80) and 124 % of control under setting [3].
On to `S=c1[nH]c2ccccc2n2cccc12`, for which the T/C reads like this: (dose: 50.0 mg/kg/injection, schedule: Q01DX009 (ip), vehicle: Klucel (hydroxypropylcellulose) (HPC)) 108 % of control; (dose: 100.0 mg/kg/injection, schedule: Q01DX009 (ip), vehicle: Klucel (hydroxypropylcellulose) (HPC)) 108 % of control; (dose: 200.0 mg/kg/injection, schedule: Q01DX009 (ip), vehicle: Klucel (hydroxypropylcellulose) (HPC)) 106 % of control.
For the molecule `CC(N=Cc1cccs1)c1ccccc1` (stereo unspecified), the T/C is, setting by setting: under setting [4], 98 % of control; under setting [5], 95 % of control; (dose: 400.0 mg/kg/injection, schedule: Q04DX003 (ip), vehicle: saline) 99 % of control.
With `BrCCC[P+](c1ccccc1)(c1ccccc1)c1ccccc1`, the T/C (dose: 8.25 mg/kg/injection, schedule: Q01DX009 (ip), vehicle: saline with Tween-80) was 116 % of control and the T/C (dose: 12.5 mg/kg/injection, schedule: Q01DX009 (ip), vehicle: saline with Tween-80) is 116 % of control.
Consider `Nc1nc2c(c(=O)[nH]1)[N+]1=CN(c3ccc(C(=O)NC(CCC(=O)O)C(=O)O)cc3)CC1CC2` (stereo unspecified), for which the T/C is, setting by setting: (dose: 50.0 mg/kg/injection, schedule: Q01DX001 (ip), vehicle: saline) 96 % of control; (dose: 50.0 mg/kg/injection, schedule: Q04DX003 (ip), vehicle: saline) 97 % of control; (dose: 100.0 mg/kg/injection, schedule: Q01DX001 (ip), vehicle: saline) 94 % of control; under setting [4], 100 % of control; (dose: 200.0 mg/kg/injection, schedule: Q01DX001 (ip), vehicle: saline) 94 % of control; under setting [5], 96 % of control.
For the molecule `CC1C(=O)OCC1(C)O` (stereo unspecified), the T/C reads like this: (dose: 60.0 mg/kg/injection, schedule: Q01DX005 (ip), vehicle: saline) 107 % of control; (dose: 120.0 mg/kg/injection, schedule: Q01DX005 (ip), vehicle: saline) 103 % of control; (dose: 240.0 mg/kg/injection, schedule: Q01DX005 (ip), vehicle: saline) 109 % of control.
On to `CN(C)Cc1cccc(CN(C)C)[c]1[Sn]([Br])([c]1ccccc1)[c]1ccccc1`, for which the T/C was 104 % of control (dose: 1.56 mg/kg/injection, schedule: Q01DX009 (ip), vehicle: saline); 106 % of control (dose: 3.12 mg/kg/injection, schedule: Q01DX009 (ip), vehicle: saline); 120 % of control (dose: 12.5 mg/kg/injection, schedule: Q01DX009 (ip), vehicle: saline).
In the case of `Clc1ccc2c(c1)Oc1ccccc1C=N2`, the T/C is 107 % of control under setting [1], 98 % of control under setting [2] and 96 % of control under setting [6].
With `CC(C)C(=O)CP(=O)(O)O`, the T/C was 106 % of control (dose: 50.0 mg/kg/injection, schedule: Q01DX009 (ip), vehicle: saline); 101 % of control (dose: 100.0 mg/kg/injection, schedule: Q01DX009 (ip), vehicle: saline); 108 % of control (dose: 200.0 mg/kg/injection, schedule: Q01DX009 (ip), vehicle: saline).
Take `O=C(O)c1c2ccccc2nc2[nH]c(=O)[nH]c(=O)c12`: the T/C under setting [7] was 114 % of control and 95 % of control; the T/C (dose: 50.0 mg/kg/injection, schedule: Q01DX005 (ip), vehicle: Klucel + Tween-80) was 117 % of control; the T/C under setting [8] was 107 % of control and 95 % of control; the T/C (dose: 100.0 mg/kg/injection, schedule: Q01DX005 (ip), vehicle: Klucel + Tween-80) is 107 % of control; the T/C under setting [9] was 114 % of control; the T/C (dose: 200.0 mg/kg/injection, schedule: Q01DX005 (ip), vehicle: Klucel + Tween-80) was 117 % of control.
`COC(=N)c1nc2c(N)nc(-c3ccccc3)nc2[nH]c1=O`: the T/C reads like this: under setting [2], 98 % of control; under setting [6], 98 % of control; (dose: 400.0 mg/kg/injection, schedule: Q01DX009 (ip), vehicle: saline with Tween-80) 97 % of control.
For `NC(=O)Nc1cc2[nH]c(=O)oc2cc1Cl`, the T/C (dose: 12.5 mg/kg/injection, schedule: Q01DX005 (ip), vehicle: Klucel (hydroxypropylcellulose) (HPC)) was 100 % of control; the T/C (dose: 25.0 mg/kg/injection, schedule: Q01DX005 (ip), vehicle: Klucel (hydroxypropylcellulose) (HPC)) is 102 % of control; the T/C under setting [7] was 88 % of control; the T/C under setting [8] was 92 % of control.
As for `CC(=O)c1ccccc1NC(=O)COc1ccccc1OCC(=O)Nc1ccccc1C(C)=O`, the T/C under setting [3] was 100 % of control, the T/C under setting [10] was 92 % of control and the T/C under setting [11] is 96 % of control.
For `CO/N=C1/OC(=O)OCC1(c1ccccc1)c1ccccc1`, the T/C runs as follows: under setting [3], 100 % of control; under setting [10], 104 % of control; under setting [11], 100 % of control.
As to `N#Cc1c(N2CCOCC2)c(-c2ccccc2)c(N2CCOCC2)n2c1nc1ccccc12`, the T/C is 90 % of control under setting [12]; 96 % of control (dose: 120.0 mg/kg/injection, schedule: Q01DX005 (ip), vehicle: saline with Tween-80); 87 % of control (dose: 240.0 mg/kg/injection, schedule: Q01DX005 (ip), vehicle: saline with Tween-80).
For the molecule `COC1C(C)OC(OC2CC(C)(O)C(C(=O)O)c3cc4c(c(O)c32)C(=O)c2c(O)cc3c(c2C4=O)OC2OC3(C)C(O)C(N(C)C)C2O)C(OC)C1(C)OC` (stereo unspecified), the T/C was 119 % of control (dose: 1.25 mg/kg/injection, schedule: Q04DX003 (ip), vehicle: other); 113 % of control (dose: 2.5 mg/kg/injection, schedule: Q04DX003 (ip), vehicle: other); 122 % of control (dose: 5.0 mg/kg/injection, schedule: Q04DX003 (ip), vehicle: other); 155 % of control (dose: 20.0 mg/kg/injection, schedule: Q04DX003 (ip), vehicle: other).
Turning to `C[Si](CNCCN)(c1ccccc1)c1ccccc1`, the T/C is 103 % of control (dose: 15.0 mg/kg/injection, schedule: Q01DX005 (ip), vehicle: saline with Tween-80); 102 % of control (dose: 30.0 mg/kg/injection, schedule: Q01DX005 (ip), vehicle: saline with Tween-80); 96 % of control and 97 % of control under setting [12].
On to `C#CCCCC#C`, for which the T/C reads like this: under setting [7], 98 % of control; under setting [8], 98 % of control; under setting [9], 104 % of control.
`CC(=O)OC[N+]1(C)CCCCC1`: the T/C runs as follows: under setting [1], 111 % of control; under setting [2], 106 % of control; under setting [6], 116 % of control.
For `C1COCCOCCOCCOCCO1.[Cl][Sn]([Cl])([Cl])[Cl]`, the T/C by setting is: (dose: 60.0 mg/kg/injection, schedule: Q01DX005 (ip), vehicle: Klucel (hydroxypropylcellulose) (HPC)) 100 % of control; (dose: 120.0 mg/kg/injection, schedule: Q01DX005 (ip), vehicle: Klucel (hydroxypropylcellulose) (HPC)) 99 % of control.
With `CN1CCC(c2ccccc2)(c2ccccc2)C(=O)C1`, the T/C is 100 % of control and 104 % of control under setting [1]; 109 % of control and 111 % of control and 114 % of control under setting [2]; 118 % of control and 123 % of control under setting [6].
For the molecule `Cc1ncc(CO)c(C=Nc2ccccc2N=Cc2c(CO)cnc(C)c2O)c1O.[Zn]`, the T/C reads like this: under setting [7], 104 % of control; under setting [8], 105 % of control; under setting [9], 101 % of control.
